Where a name gives a salt, the structure may show the parent alone.
Experiments:
[1] = system: melanotic melanoma B16; assay: Melanotic Melanoma B16 test; assay type: in vivo, mouse (B6C3-F1); conditions: median survival T/C; IP days 1, 5, 9; active if >125%; dose mg/kg: 1C 100, 6G 50, 3 70, 2 75, 18B 70
Excerpt: Methods for evaluating the antitumor activity of these compounds are essentially those used in the Tumor Panel by the Developmental Therapeutics Program, Division of Cancer Treatment, National Cancer Institute, A. Goldin, et al., Methods in Cancer Research, Vol. XVI, p. 165, Academic Press (1979). Some modifications, in dose level and schedule have been made to increase the testing efficiency.
(§1) CD2-F1 mice, of the same sex, weighing 20±3 g, are used for this test. Control and test animals are injected intraperitoneally with a suspension of ~10^6 viable P388/0 tumor cells on day 0. In each test, several dose levels which bracket the LD20 of the compound are evaluated; each dose level group contains six animals. The test compounds are prepared either in physiologic saline containing 0.05% Tween 80 or distilled water containing 5% dextrose and are administered intraperitoneally on days 1, 5, and 9 relative to tumor implant. Doses are on a mg/kg basis according to individual animals' body weights. The day of death for each animal is recorded, the median identified for each group and the ratios of median survival time for treated (T)/control (C) groups are calculated. The criterion for activity is T/C×100≥120%.
B6C3-F1 mice of the same sex, weighing 20±3 g, are used for this test. A suspension of B16 cells is prepared from a non-necrotic portion of solid tumor tissue obtained from a passage mouse. One gram of tumor is homogenized in 9 mL ice-cold Earle's salts solution and filtered through 1000 mesh screen to remove debris. 0.5 mL of the resulting brei is injected intraperitoneally into each animal. Dosing is carried out as in the P388/0 and L1210 tests. Days of death are recorded for a 60 day period and T/C ratio calculated as in the P388/0 and L1210 tests. The criterion for activity is T/C×100>125%.

[2] = system: Candida albicans (CN 1863); assay: Candida albicans antifungal test; assay type: cell-based; conditions: Wellcotest sensitivity test agar plus 7% lysed horse blood, CN1863
Excerpt: Antifungal testing against Candida albicans (CN 1863) was done with slight modifications using a combination of broth and agar dilution assays as outlined in Laboratory Handbook of Medical Mycology, Chapter 6, pages 441-446, M. R. McGinnis, Academic Press, New York, NY, 1980
Medium: Wellcotest ® sensitivity test agar plus 7% lysed horse blood.

[3] = system: Streptococcus pyogenes (CN10); assay: Antibacterial test, Streptococcus pyogenes (agar dilution); assay type: cell-based; conditions: agar dilution, CN10, read-out: MIC
Excerpt: (§2) Anitbacterial testing against […] (S3264) and Streptococcus pyogenes (CN10) was done with slight modifications using standard agar dilution assays as outlined in Manual of Clinical Microbiology Second Ed., E. H. Lennette. E. H. Spaulding and J. P. Traunt Eds., American Society for Microbiology, Washington, DC, 1974

[4] = system: Mycoplasma smegmatis; assay: Antibacterial test, Mycoplasma smegmatis (agar dilution); assay type: cell-based
Excerpt: as §2

[5] = system: CD2-F1 mice; assay: LD20 in the P388/0 test mice; assay type: in vivo, mouse (CD2-F1); conditions: IP days 1, 5, 9, doses on a mg/kg basis
Procedure: as §1
^A Values in parentheses are the highest nontoxic dose where the
LD20 was not determined.

Which results are given for C[C@H](O)[C@@](C)(CO)NCc1cc2c3ccccc3ccc2c2ccccc12 (relative stereo) [Example 6G, (+-)(2R*,3S*)-2-(6-Chrysenylmethylamino)-2-methyl-1,3-butanediol hydrochloride.1/3H2 O]?
T/C × 100% Excluding 60 day Survivors [1]: +160%; MIC [2]: 100 µg/mL; MIC [3]: 10 µg/mL; MIC [4]: ≤ 3 µg/mL; LD20 [5]: 53 mg/kg
